# From publication PMC12126180 (Journal of chemical information and modeling, 2021)
# Key:
# SARS-CoV-2 WA1 strain = format: cell-based; details: Vero E6 cells
# COVID-19 = details: 1063 patients, cited from earlier work
SMILES,activity against SARS-CoV-2 replication in words (SARS-CoV-2 WA1 strain),mortality rate (COVID-19; placebo 11.9%),recovery time shortened with respect to the placebo (COVID-19)
CC(C)(O)c1ccccc1CC[C@@H](SCC1(CC(=O)O)CC1)c1cccc(/C=C/c2ccc3ccc(Cl)cc3n2)c1 [Montelukast],weakly active,,
CCC(CC)COC(=O)[C@H](C)N[P@](=O)(OC[C@H]1O[C@@](C#N)(c2ccc3c(N)ncnn23)[C@H](O)[C@@H]1O)Oc1ccccc1 [Remdesivir],,7.1%,four
